Measured values as given in patent publication US20120225061A1, “TETRASUBSTITUTED CYCLOHEXYL COMPOUNDS AS KINASE INHIBITORS” (priority 2011, published 2012).

Columns and labels:
[1] = test system: KMS11 (human myeloma cell line); experiment: Cell proliferation assay (CellTiter-Glo) in KMS11 cells; assay type: cell-based; conditions: KMS-11, 72 h, Table 4, 3 days, read-out: KMS11-luc EC50
Method in brief: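 KMS11 cells at 2000 per well in IMDM/10% FBS were exposed to compound for 3 days. Viability was read by CellTiter-Glo luminescence.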

[2] = target: Pim2 kinase (Homo sapiens, UniProt Q9P1W9); experiment: KinaseGlo Pim2 ATP depletion assay; assay type: biochemical; conditions: Table 4, 5 nM PIM2, 4 μM ATP, 10 μM BAD peptide
[3] = target: Pim1 kinase (Homo sapiens, UniProt P11309); experiment: KinaseGlo Pim1 ATP depletion assay; assay type: biochemical; conditions: Table 4, 2.5 nM PIM1, 20 μM ATP, 40 μM BAD peptide
Protocol: The activity of PIM1 is measured using a luciferase-luciferin based ATP detection reagent to quantify ATP depletion resulting from kinase-catalyzed phosphoryl transfer to a peptide substrate. Compounds to be tested are dissolved in 100% DMSO and directly distributed into white 384-well plates at 0.5 μl per well. […] After 15 minutes, 10 μl of 40 μM ATP in assay buffer is added. […] The reaction is performed until approximately 50% of the ATP is depleted, then stopped with the addition of 20 μl KinaseGlo Plus (Promega Corporation) solution. The stopped reaction is incubated for 10 minutes and the remaining ATP detected via luminescence on the Victor2 (Perkin Elmer).

[4] = target: Pim3 kinase (Homo sapiens, UniProt Q86V86); experiment: KinaseGlo Pim3 ATP depletion assay; assay type: biochemical; conditions: Table 4, 40 μM ATP, 100 μM BAD peptide
Protocol: The activity of PIM3 is measured using a luciferase-luciferin based ATP detection reagent to quantify ATP depletion resulting from kinase-catalyzed phosphoryl transfer to a peptide substrate. Compounds to be tested are dissolved in 100% DMSO and directly distributed into white 384-well plates at 0.5 μl per well. […] After 15 minutes, 10 μl of 80 μM ATP in assay buffer is added. Final assay concentrations are 5 nM PIM1, 40 μM ATP, 100 μM BAD peptide and 2.5% DMSO. The reaction is performed until approximately 50% of the ATP is depleted, then stopped by the addition of 20 μl KinaseGlo Plus (Promega Corporation) solution. The stopped reaction is incubated for 10 minutes and the remaining ATP detected via luminescence on the Victor2 (Perkin Elmer).

Sequence of Pim1 kinase (P11309 whole entry): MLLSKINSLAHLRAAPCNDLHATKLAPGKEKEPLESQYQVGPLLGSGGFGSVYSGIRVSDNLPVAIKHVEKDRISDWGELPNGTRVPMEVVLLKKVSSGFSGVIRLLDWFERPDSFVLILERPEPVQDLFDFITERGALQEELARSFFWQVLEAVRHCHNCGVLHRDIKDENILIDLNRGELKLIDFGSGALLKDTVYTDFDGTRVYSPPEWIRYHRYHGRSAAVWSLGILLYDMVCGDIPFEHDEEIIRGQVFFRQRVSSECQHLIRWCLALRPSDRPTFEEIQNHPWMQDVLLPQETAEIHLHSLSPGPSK
Sequence of Pim2 kinase (Q9P1W9 whole entry): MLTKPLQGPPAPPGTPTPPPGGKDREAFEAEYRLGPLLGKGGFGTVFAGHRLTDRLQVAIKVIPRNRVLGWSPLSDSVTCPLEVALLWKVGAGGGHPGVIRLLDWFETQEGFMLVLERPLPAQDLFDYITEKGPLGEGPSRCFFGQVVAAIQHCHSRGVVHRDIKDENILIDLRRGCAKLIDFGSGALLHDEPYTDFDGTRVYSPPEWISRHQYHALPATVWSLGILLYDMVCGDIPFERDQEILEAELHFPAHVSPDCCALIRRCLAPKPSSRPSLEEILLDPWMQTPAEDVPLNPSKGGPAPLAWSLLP

EC50 [1] [nM] | IC50 [2] [nM] | IC50 [3] [nM] | IC50 [4] [nM] | Structure (SMILES)
≥ 10000 | 740 | 12.7 | 220 | C[C@@H]1C[C@H](c2ccncc2NC(=O)c2ccc(F)c(-c3c(F)ccc(N)c3F)n2)C[C@H](O)[C@@]1(C)O [Example 55, 6-(3-amino-2,6-difluorophenyl)-N-(4-((1S,3S,4S,5R)-3,4-dihydroxy-4,5-dimethylcyclohexyl)pyridin-3-yl)-5-fluoropicolinamide]
7960 | 5.3 | 0.4 | 2.9 | C[C@H]1C[C@@H](c2ccncc2NC(=O)c2ccc(F)c(-c3c(F)ccc(N)c3F)n2)C[C@@H](O)[C@]1(C)O [Example 56, 6-(3-amino-2,6-difluorophenyl)-N-(4-((1R,3R,4R,5S)-3,4-dihydroxy-4,5-dimethylcyclohexyl)pyridin-3-yl)-5-fluoropicolinamide]
6620 | 227 | 15.1 | 102 | C[C@@H]1C[C@H](c2ccncc2NC(=O)c2cccc(-c3c(F)cccc3F)n2)C[C@H](O)[C@@]1(C)O [Example 57, 6-(2,6-difluorophenyl)-N-(4-((1S,3S,4S,5R)-3,4-dihydroxy-4,5-dimethylcyclohexyl)pyridin-3-yl) picolinamide]
6060 | 3.4 | 0.4 | 2.6 | C[C@H]1C[C@@H](c2ccncc2NC(=O)c2cccc(-c3c(F)cccc3F)n2)C[C@@H](O)[C@]1(C)O [Example 58, 6-(2,6-difluorophenyl)-N-(4-((1R,3R,4R,5S)-3,4-dihydroxy-4,5-dimethylcyclohexyl)pyridin-3-yl) picolinamide]
≥ 10000 | 1710 | 19.3 | 329 | C[C@@H]1C[C@H](c2ccncc2NC(=O)c2ccc(F)c(-c3c(F)cccc3F)n2)C[C@H](O)[C@]1(O)CO [Example 60, 6-(2,6-difluorophenyl)-N-(4-((1S,3S,4R,5R)-3,4-dihydroxy-4-(hydroxymethyl)-5-methylcyclohexyl)pyridin-3-yl)-5-fluoropicolinamide]
5750 | 4.6 | 1 | 1.9 | C[C@H]1C[C@@H](c2ccncc2NC(=O)c2nc(-c3nc(Cl)ccc3F)ccc2N)C[C@@H](O)[C@]1(C)O [Example 136, 5-amino-6′-chloro-N-(4-((1R,3R,4R,5S)-3,4-dihydroxy-4,5-dimethylcyclohexyl)pyridin-3-yl)-3′-fluoro-2,2′-bipyridine-6-carboxamide]
8580 | 5.4 | 1.5 | 2.3 | COC(=O)c1ccc(F)c(-c2ccc(N)c(C(=O)Nc3cnccc3[C@H]3C[C@@H](O)[C@](C)(O)[C@@H](C)C3)n2)n1 [Example 137, methyl 5′-amino-6′-(4-((1R,3R,4R,5S)-3,4-dihydroxy-4,5-dimethylcyclohexyl)pyridin-3-ylcarbamoyl)-3-fluoro-2,2′-bipyridine-6-carboxylate]
≥ 10000 | 12.9 | 1.7 | 2.6 | Cc1ccc(F)c(-c2ccc(N)c(C(=O)Nc3cnccc3[C@H]3C[C@@H](O)[C@](C)(O)[C@@H](C)C3)n2)n1 [Example 138, 5-amino-N-(4-((1R,3R,4R,5S)-3,4-dihydroxy-4,5-dimethylcyclohexyl)pyridin-3-yl)-3′-fluoro-6′-methyl-2,2′-bipyridine-6-carboxamide]
≥ 10000 | 130 | 7.5 | 15.2 | Cc1nn(C)cc1-c1ccc(N)c(C(=O)Nc2cnccc2[C@H]2C[C@@H](O)[C@](C)(O)[C@@H](C)C2)n1 [Example 140, 3-amino-N-(4-((1R,3R,4R,5S)-3,4-dihydroxy-4,5-dimethylcyclohexyl)pyridin-3-yl)-6-(1,3-dimethyl-1H-pyrazol-4-yl)picolinamide]
4870 | 2.1 | 1.1 | 2.2 | C[C@H]1C[C@@H](c2ccncc2NC(=O)c2nc(-c3c(F)cncc3F)ccc2N)C[C@@H](O)[C@]1(C)O [Example 141, 5-amino-N-(4-((1R,3R,4R,5S)-3,4-dihydroxy-4,5-dimethylcyclohexyl)pyridin-3-yl)-3′,5′-difluoro-2,4′-bipyridine-6-carboxamide]
≥ 10000 | 769 | 152 | 245 | C[C@H]1C[C@@H](c2ccncc2NC(=O)c2nc(-c3ccnnc3)ccc2N)C[C@@H](O)[C@]1(C)O [Example 142, 3-amino-N-(4-((1R,3R,4R,5S)-3,4-dihydroxy-4,5-dimethylcyclohexyl)pyridin-3-yl)-6-(pyridazin-4-yl)picolinamide]
6690 | 120 | 8.8 | 8.7 | Cc1c(-c2ccc(N)c(C(=O)Nc3cnccc3[C@H]3C[C@@H](O)[C@](C)(O)[C@@H](C)C3)n2)cnn1C [Example 143, 3-amino-N-(4-((1R,3R,4R,5S)-3,4-dihydroxy-4,5-dimethylcyclohexyl)pyridin-3-yl)-6-(1,5-dimethyl-1H-pyrazol-4-yl)picolinamide]
4220 | 7.7 | 0.7 | 2.3 | C[C@H]1C[C@@H](c2ccncc2NC(=O)c2nc(-c3ncccc3Cl)ccc2N)C[C@@H](O)[C@]1(C)O [Example 144, 5-amino-3′-chloro-N-(4-((1R,3R,4R,5S)-3,4-dihydroxy-4,5-dimethylcyclohexyl)pyridin-3-yl)-2,2′-bipyridine-6-carboxamide]
